# Reference: patent US8993782B2, “Cis-alkoxyspirocyclic biphenyl-substituted tetramic acid derivatives” (Bayer CropScience AG, priority 2006, dated 2015)
# Legend:
# Type in all cases: in vivo
# [1] = system: Myzus persicae; assay: Myzus persicae test, spray, activity boost by ammonium salt and penetrant (Example 2); conditions: 0.8 ppm active compound
# Method: Activity Boost Through Ammonium/Phosphonium Salts in Combination with Penetrants
# (§1) Solvent: 7 parts by weight of dimethylformamide
# (§2) Emulsifier: 2 parts by weight of alkylaryl polyglycol ether
# To produce a suitable preparation of active compound, 1 part by weight of active compound is mixed with the stated amounts of solvent and emulsifier, and the concentrate is diluted with water to the desired concentration. For application with ammonium salts or phosphonium salts and penetrants (rapeseed oil methyl ester 500 EW) these are added in each case in a concentration of 1000 ppm to the spray liquor.
# Bell pepper plants (Capsicum annuum) which are heavily infested by the green peach aphid (Myzus persicae) are treated with the active compound preparation of the desired concentration by spraying to runoff point. After the desired period of time, the kill in % is determined. 100% means that all animals have been killed; 0% means that none of the animals have been killed.
# [2] = system: Aphis gossypii; assay: Aphis gossypii test, spray, ammonium salt and penetrant (Example 3); conditions: 20 ppm active compound
# Method: Aphis gossypii Test Solvent: 7 parts by weight of dimethylformamide Emulsifier: 2 parts by weight of alkylaryl polyglycol ether To produce a suitable preparation of active compound, 1 part by weight of active compound is mixed with the stated amounts of solvent and emulsifier, and the concentrate is diluted with emulsifier-containing water to the desired concentration. For application with ammonium salts or phosphonium salts and penetrant (rapeseed oil methyl ester 500 EW) these are added in each case in a concentration of 1000 ppm (a.i.) to the spray liquor. Cotton plants (Gossypium hirsutum) which are heavily infested by the cotton aphid (Aphis gossypii) are treated with the active compound preparation of the desired concentration by spraying to runoff point. After the desired period of time, the kill in % is determined. 100% means that all aphids have been killed; 0% means that none of the aphids have been killed.
# [3] = system: Aphis gossypii; assay: Aphis gossypii test, spray, with/without ammonium salt (Example 1); conditions: 20 ppm active compound, cotton plants sprayed to runoff
# Method: as §1, §2
# To produce a suitable preparation of active compound, 1 part by weight of active compound is mixed with the stated amounts of solvent and emulsifier, and the concentrate is diluted with emulsifier-containing water to the desired concentration. For application with ammonium salts or phosphonium salts these are added in a concentration of 1000 ppm to the spray liquor.
# Cotton plants (Gossypium hirsutum) which are severely infested with cotton aphids (Aphis gossypii) are treated by spraying to runoff point with the preparation of the active substance at the desired concentration.
# After the desired period of time, the kill in % is determined. 100% means that all aphids have been killed; 0% means that none of the aphids have been killed.
SMILES,Kill rate/% after 6 days ([1]; +AS (1000 ppm)) [%],Kill rate/% after 6 days ([1]; +RME (1000 ppm)) [%],Kill rate/% after 6 days ([1]; +RME + AS (1000 ppm each)) [%],"Kill rate/% after 6 days ([1]; bell pepper plants sprayed to runoff, no additive) [%]",Kill rate/% after 6 days ([2]; +AS (1000 ppm)) [%],Kill rate/% after 6 days ([2]; +RME (1000 ppm)) [%],Kill rate/% after 6 days ([2]; +RME + AS (1000 ppm each)) [%],"Kill rate/% after 6 days ([2]; cotton plants sprayed to runoff, no additive) [%]",Kill rate/% after 6 days ([3]; +AS (1000 ppm)) [%],Kill rate/% after 6 days ([3]; no additive) [%]
CO[C@H]1CC[C@]2(CC1)NC(=O)C(c1cc(-c3ccc(F)cc3)ccc1C)=C2O [I-a-1],0,30,70,10,15,70,80,5,–,–
COC1CCC2(CC1)NC(=O)C(c1c(C)ccc(-c3ccc(F)cc3)c1C)=C2O (stereo not shown) [I-a-2],–,–,–,–,–,–,–,–,25,15
